IC50 data for 95 molecules are collected here from ChEMBL document CHEMBL3638480, “Inhibitors” (2013).

As usually defined, the IC50 is the concentration that inhibits the measured activity by half. Low readings indicate higher potency, high ones lower potency.

Sequence of Glutaminyl-peptide cyclotransferase (Q16769 whole entry): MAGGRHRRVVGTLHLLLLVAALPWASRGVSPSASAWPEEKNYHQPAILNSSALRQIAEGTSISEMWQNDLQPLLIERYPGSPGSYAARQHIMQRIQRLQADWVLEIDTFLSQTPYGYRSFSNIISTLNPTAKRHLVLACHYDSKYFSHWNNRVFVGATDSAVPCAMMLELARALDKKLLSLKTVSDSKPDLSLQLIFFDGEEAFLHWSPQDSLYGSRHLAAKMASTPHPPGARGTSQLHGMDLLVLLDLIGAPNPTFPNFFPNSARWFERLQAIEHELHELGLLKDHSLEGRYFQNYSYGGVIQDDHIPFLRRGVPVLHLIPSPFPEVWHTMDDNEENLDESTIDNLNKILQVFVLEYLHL

This test addresses Glutaminyl-peptide cyclotransferase (Homo sapiens, UniProt Q16769). Kind of test: Spectrophotometic Assay: Spectrophotometic Assay: This novel assay was used to determine the kinetic parameters for most of the QC substrates. QC activity was analyzed spectrophotometrically using a continuous method, that was derived by adapting a previous discontinuous assay (Bateman, R.C.J. 1989 J Neurosci Methods 30, 23-28).
Regarding `O=C1NCC(c2ccc(OCCCN3CCOCC3)cc2)N1c1ccc2nc[nH]c2c1` (stereo not given), the IC50 is under 10 µM.

Regarding `O=C1NCC(c2ccc(OCCN3CCOCC3)cc2)N1c1ccn2ccnc2c1` (stereo not given), the half-inhibitory concentration (IC50) is under 10 µM.

On to `COc1ccc(C2CNC(=O)N2c2ccc3nc[nH]c3c2)cc1F` (stereo not given), for which the IC50 was under 10 µM. The result for `CCOc1ccc(C2CNC(=O)N2c2ccc3[nH]cnc3c2)cc1` (stereo not given) reads under 10 µM; that for `O=C1NCC(c2ccccc2Cl)N1c1ccc2nc[nH]c2c1` (stereo not given), under 10 µM; that for `O=C1NCC(c2ccc(C(F)(F)F)cc2F)N1c1ccc2[nH]cnc2c1` (stereo not given), under 10 µM. `COCCCc1ccc(C2CNC(=O)N2c2ccc3[nH]cnc3c2)cc1` (stereo not given) returned an IC50 of under 10 µM. Next, `O=C1NCC(c2ccc(OC(F)(F)C(F)F)cc2)N1c1ccc2[nH]cnc2c1` (stereo not given): under 10 µM. The result for `O=C1NCC(c2cccc(F)c2)N1c1ccc2nc[nH]c2c1` (stereo not given) reads under 10 µM; that for `COc1cccc(C2CNC(=O)N2c2ccc3nc[nH]c3c2)c1` (stereo not given), under 10 µM. Next, `O=C1NCC(c2ccc(N3CCN(c4ccccc4)CC3)cc2)N1c1ccn2ccnc2c1` (stereo not given): under 10 µM. In the case of `COc1cc(F)c(C2CNC(=O)N2c2ccn3ccnc3c2)c(F)c1` (stereo not given), the concentration for half-maximal inhibition (IC50) was under 10 µM.

Turning to `CCCOc1ccc(C2CN(CCCc3ccccc3)C(=O)N2c2ccc3[nH]cnc3c2)cc1` (stereo not given), the IC50 was under 10 µM. The result for `O=C1NCC(c2ccc(C3CCCCC3)cc2)N1c1ccn2ccnc2c1` (stereo not given) reads under 10 µM; that for `O=C1NCC(c2ccc(F)cc2)N1c1ccc2[nH]cnc2c1` (stereo not given), under 10 µM; that for `O=C1NCC(c2cc(C(F)(F)F)ccc2F)N1c1ccc2[nH]cnc2c1` (stereo not given), under 10 µM. Next, `CCCOc1ccc(C2CCC(=O)N2c2ccc3[nH]cnc3c2)cc1` (stereo not given): under 10 µM; `CCCCCOc1ccc(C2CNC(=O)N2c2ccc3nc[nH]c3c2)cc1` (stereo not given): under 10 µM; `O=C1NCC(c2ccc(O)cc2)N1c1ccc2[nH]cnc2c1` (stereo not given): under 10 µM. `CC(C)Oc1ccc(C2CNC(=O)N2c2ccc3nc[nH]c3c2)cc1` (stereo not given) returned an IC50 of under 10 µM. On to `O=C1NCC(c2cccc(Cl)c2Cl)N1c1ccc2nc[nH]c2c1` (stereo not given), for which the IC50 is under 10 µM. As for `CCCOc1ccc(C2CNC(=O)N2c2ccc3[nH]cnc3c2)c(F)c1` (stereo not given), the half-inhibitory concentration (IC50) was under 10 µM. With `O=C1NCC(c2ccc(N3CCCCC3)cc2)N1c1ccn2ccnc2c1` (stereo not given), the IC50 was under 10 µM. The result for `CCCOc1ccc(C2CN(CCc3ccccc3)C(=O)N2c2ccc3[nH]cnc3c2)cc1` (stereo not given) reads under 10 µM; that for `O=C1c2ccccc2C(c2ccc(Cl)cc2)N1c1ccc2[nH]cnc2c1` (stereo not given), under 10 µM. The result for `O=C1NCC(c2c(Cl)cccc2Cl)N1c1ccc2nc[nH]c2c1` (stereo not given) reads under 10 µM. Next, `O=C1NCC(c2ccc(C3CCC(N4CCOCC4)CC3)cc2)N1c1ccc2[nH]cnc2c1` (stereo not given): under 10 µM; `O=C1NCC(c2ccc(C3CCOCC3)cc2)N1c1ccc2[nH]cnc2c1` (stereo not given): under 10 µM.

The molecule `COc1cc(C2CNC(=O)N2c2ccn3ccnc3c2)cc2c1OCO2` (stereo not given) registered an IC50 of under 10 µM.

`O=C1CCC(c2ccc(C3CNC(=O)N3c3ccc4[nH]cnc4c3)cc2)CC1` (stereo not given) yielded an IC50 of under 10 µM. The result for `O=C1NCC(c2ccc(-c3ccccc3)c(F)c2)N1c1ccc2[nH]cnc2c1` (stereo not given) reads under 10 µM. Next, `COc1cc(F)c(C2CNC(=O)N2c2ccc3nc[nH]c3c2)c(F)c1` (stereo not given): under 10 µM; `O=C1NCC(c2ccccc2OCCN2CCOCC2)N1c1ccc2nc[nH]c2c1` (stereo not given): under 10 µM.

Consider `COCCOc1ccc(C2CNC(=O)N2c2ccc3[nH]cnc3c2)cc1` (stereo not given), for which the IC50 is under 10 µM. Next, `CCCOc1ccc([C@H]2[C@H](c3ccccc3)OC(=O)N2c2ccc3[nH]cnc3c2)cc1`: under 10 µM; `O=C1NCC(c2cccc(N3CCCCC3)c2)N1c1ccn2ccnc2c1` (stereo not given): under 10 µM. As to `O=C1NCC(c2ccc(N3CCCC3)cc2)N1c1ccn2ccnc2c1` (stereo not given), the IC50 is under 10 µM.

On to `O=C1NCC(c2c(F)cccc2F)N1c1ccc2[nH]cnc2c1` (stereo not given), for which the IC50 is under 10 µM. With `COc1ccccc1C1CNC(=O)N1c1ccc2[nH]cnc2c1` (stereo not given), the IC50 is under 10 µM. The result for `O=C1NCC(C2CCC(c3ccccc3)CC2)N1c1ccc2nc[nH]c2c1` (stereo not given) reads under 10 µM; that for `COc1ccc(C2CN(N)C(=O)N2c2ccc3[nH]cnc3c2)cc1` (stereo not given), under 10 µM. Next, `COc1ccc(C2CCC(=O)N2c2ccc3[nH]cnc3c2)cc1` (stereo not given): under 10 µM; `O=C1NCC(c2ccc(-c3ccccc3)c(F)c2)N1c1ccn2ccnc2c1` (stereo not given): under 10 µM; `CC1(C)OC(=O)N(c2ccc3nc[nH]c3c2)[C@H]1c1ccccc1`: under 10 µM. Next, `CCCOc1ccc(C2CNC(=O)N2c2ccc3[nH]cnc3c2)cc1F` (stereo not given): under 10 µM; `O=C1NCC(c2cccc(-c3ccccc3)c2)N1c1ccc2[nH]cnc2c1` (stereo not given): under 10 µM; `O=C1NCC(c2ccc3c(c2)OC(F)(F)O3)N1c1ccc2[nH]cnc2c1` (stereo not given): under 10 µM.

The molecule `O=C1NCC(c2ccc(OCCN3CCOCC3)cc2)N1c1ccc2nc[nH]c2c1` (stereo not given) had an IC50 of under 10 µM. As for `O=C1c2ccccc2[C@H](c2ccc(Cl)cc2)N1c1ccc2[nH]cnc2c1`, the IC50 was under 10 µM. Next, `O=C1NCC(c2ccc3c(c2)OCCO3)N1c1ccc2[nH]cnc2c1` (stereo not given): under 10 µM; `C[C@@H]1OC(=O)N(c2ccc3nc[nH]c3c2)[C@H]1c1ccccc1`: under 10 µM; `O=C1NCC(C2CCN(c3ccccc3)CC2)N1c1ccc2nc[nH]c2c1` (stereo not given): under 10 µM. The result for `O=C1NCC(c2ccc(C(F)(F)F)c(F)c2)N1c1ccc2nc[nH]c2c1` (stereo not given) reads under 10 µM; that for `O=C1CCC(c2ccc3c(c2)OCCO3)N1c1ccc2[nH]cnc2c1` (stereo not given), under 10 µM. `O=C1NCC(c2ccc(C3CCCCC3)cc2)N1c1ccc2[nH]cnc2c1` (stereo not given) yielded an IC50 of under 10 µM. Next, `O=C1NCC(c2ccc(-c3cccc(Cl)c3)cc2)N1c1ccc2[nH]cnc2c1` (stereo not given): under 10 µM; `COc1cc(C2CNC(=O)N2c2ccc3[nH]cnc3c2)ccc1F` (stereo not given): under 10 µM. The molecule `O=C1NCC(c2ccc(Cl)c(Cl)c2)N1c1ccc2nc[nH]c2c1` (stereo not given) registered an IC50 of under 10 µM. Next, `O=C1NCC(c2cc(F)cc(C(F)(F)F)c2)N1c1ccc2[nH]cnc2c1` (stereo not given): under 10 µM; `CN(C)CCCc1ccc([C@@H]2COC(=O)N2c2ccc3[nH]cnc3c2)cc1`: under 10 µM; `O=C1NCC(c2ccc(N3CCOCC3)cc2)N1c1ccc2[nH]cnc2c1` (stereo not given): under 10 µM.

On to `O=C1NCC(c2ccc(N3CCN(c4ccccc4)CC3)cc2)N1c1ccc2nc[nH]c2c1` (stereo not given), for which the IC50 is under 10 µM.

`O=C1NCC(c2ccc(N3CCOCC3)c(Cl)c2)N1c1ccc2nc[nH]c2c1` (stereo not given) yielded an IC50 of under 10 µM.

`O=C1NCC(c2c(F)cccc2F)N1c1ccn2ccnc2c1` (stereo not given) registered a half-inhibitory concentration (IC50) of under 10 µM. In turn, `O=C1NCC(c2ccccc2F)N1c1ccc2[nH]cnc2c1` (stereo not given) had an IC50 of under 10 µM.

`CCCOc1ccc(C2CN(Cc3ccc4ccccc4c3)C(=O)N2c2ccc3[nH]cnc3c2)cc1` (stereo not given) gave an IC50 of under 10 µM. Next, `O=C1NCC(c2ccc(-c3ccc(Cl)c(Cl)c3)cc2)N1c1ccc2nc[nH]c2c1` (stereo not given): under 10 µM; `CCCCOc1ccc(C2CNC(=O)N2c2ccc3nc[nH]c3c2)cc1` (stereo not given): under 10 µM.

As for `CCCOc1ccc(C2CN(Cc3ccccc3)C(=O)N2c2ccc3[nH]cnc3c2)cc1` (stereo not given), the IC50 is under 10 µM.

Consider `O=C1NCC(c2cccc(Cl)c2)N1c1ccc2nc[nH]c2c1` (stereo not given), for which the half-inhibitory concentration (IC50) is under 10 µM.

Molecule `O=C1NCC(c2cccc(-c3cccc(Cl)c3)c2)N1c1ccc2[nH]cnc2c1` (stereo not given) displayed an IC50 of under 10 µM. The result for `O=C1NCC(c2ccc(Cl)cc2)N1c1ccc2[nH]cnc2c1` (stereo not given) reads under 10 µM. For the molecule `O=C1NCC(c2ccc(OC3CCCCC3)cc2)N1c1ccc2[nH]cnc2c1` (stereo not given), the IC50 was under 10 µM. Next, `COc1cc(C2CNC(=O)N2c2ccc3[nH]cnc3c2)cc2c1OCO2` (stereo not given): under 10 µM; `O=C1OC[C@H](c2ccc(OCCN3CCOCC3)cc2)N1c1ccc2[nH]cnc2c1`: under 10 µM.

In turn, `O=C1OC[C@H](c2cc(F)cc(C(F)(F)F)c2)N1c1ccc2nc[nH]c2c1` had an IC50 of under 10 µM. Regarding `O=C1OC[C@H](c2ccc3c(c2)OCO3)N1c1ccc2nc[nH]c2c1`, the IC50 was under 10 µM. Next, `COc1ccc([C@H]2[C@@H](C)NC(=O)N2c2ccc3nc[nH]c3c2)cc1`: under 10 µM. In turn, `O=C1OC[C@H](c2cccc(F)c2)N1c1ccc2[nH]cnc2c1` registered a half-maximal inhibitory concentration (IC50) of under 10 µM. `CN1CCN(c2ccc([C@H]3COC(=O)N3c3ccc4nc[nH]c4c3)cc2)CC1` had an IC50 of under 10 µM. The result for `O=C1OC[C@H](c2cccc(F)c2F)N1c1ccc2nc[nH]c2c1` reads under 10 µM. Next, `O=C1NC[C@H](c2ccc(C3CCC(F)(F)CC3)cc2)N1c1ccc2[nH]cnc2c1`: under 10 µM; `O=C1OC[C@H](c2ccc3c(c2)OCCO3)N1c1ccc2nc[nH]c2c1`: under 10 µM.

Regarding `CN(C)CCOc1ccc([C@H]2CNC(=O)N2c2ccc3[nH]cnc3c2)cc1`, the IC50 is under 10 µM.

In turn, `CCN(CC)c1ccc([C@H]2CNC(=O)N2c2ccc3[nH]cnc3c2)cc1` came in with an IC50 of under 10 µM. Next, `O=C1OC[C@H](c2cccc(-c3cccc(Cl)c3)c2)N1c1ccc2nc[nH]c2c1`: under 10 µM; `O=C1OC[C@H](c2ccc(OCCN3CCNCC3)cc2)N1c1ccc2[nH]cnc2c1`: under 10 µM; `O=C1OC[C@H](c2cccc(Cl)c2)N1c1ccc2nc[nH]c2c1`: under 10 µM. With `O=C1OC[C@H](c2ccc(-c3cccc(Cl)c3)cc2)N1c1ccc2nc[nH]c2c1`, the IC50 is under 10 µM. Next, `O=C1OC[C@H](c2ccccc2)N1c1ccc2[nH]cnc2c1`: under 10 µM; `CN1CCC(c2ccc([C@H]3CNC(=O)N3c3ccc4[nH]cnc4c3)cc2)CC1`: under 10 µM. Next, `COCCCc1ccc([C@H]2COC(=O)N2c2ccc3[nH]cnc3c2)cc1`: under 10 µM; `Cc1nc2ccc(N3C(=O)OC[C@@H]3c3ccccc3)cc2[nH]1`: under 10 µM; `O=C1OC[C@H](c2ccc(Cl)cc2)N1c1ccc2nc[nH]c2c1`: under 10 µM. The result for `O=C1OC[C@H](c2cccc(N3CCN(c4ccccc4)CC3)c2)N1c1ccc2nc[nH]c2c1` reads under 10 µM.
